The subject of series [1] is Rattus norvegicus. As to the kind of experiment: Cardiovascular activity in deoxycorticosterone acetate treated hypertensive CD rat assessed as change in heart rate at 10 mg, ip after 2 hrs relative to control. As to conditions: in vivo. Format: ADME, organism-based.
Series [2] concerns Rattus norvegicus. Kind of series: Hypotensive activity in deoxycorticosterone acetate treated hypertensive CD rat assessed as change in blood pressure at 5 mg, ip after 24 hrs relative to control. Format: functional.
Series [3] deals with Rattus norvegicus. Kind of series: Hypotensive activity in deoxycorticosterone acetate treated hypertensive CD rat assessed as change in blood pressure at 10 mg, ip after 24 hrs relative to control. Format: functional.
The test system of series [4] is Rattus norvegicus. Kind of series: Cardiovascular activity in deoxycorticosterone acetate treated hypertensive CD rat assessed as change in heart rate at 5 mg, ip after 4 hrs relative to control. Format: ADME, organism-based. As to conditions: in vivo.
The test system of series [5] is Rattus norvegicus. As to the kind of experiment: Hypotensive activity in deoxycorticosterone acetate treated hypertensive CD rat assessed as change in blood pressure at 10 mg, ip after 2 hrs relative to control. Format: functional.
In series [6] the test system is Rattus norvegicus. As to the kind of experiment: Cardiovascular activity in deoxycorticosterone acetate treated hypertensive CD rat assessed as change in heart rate at 10 mg, ip after 24 hrs relative to control. Format: ADME, organism-based. As to conditions: in vivo.
The subject of series [7] is Rattus norvegicus. Kind of series: Hypotensive activity in deoxycorticosterone acetate treated hypertensive CD rat assessed as change in blood pressure at 5 mg, ip after 1 hr relative to control. Format: functional.
The test system of series [8] is Rattus norvegicus. As to the kind of experiment: Hypotensive activity in deoxycorticosterone acetate treated hypertensive CD rat assessed as change in blood pressure at 5 mg, ip after 2 hrs relative to control. Format: functional.
The subject of series [9] is Rattus norvegicus. As to the kind of experiment: Hypotensive activity in deoxycorticosterone acetate treated hypertensive CD rat assessed as change in blood pressure at 10 mg, ip after 4 hrs relative to control. Format: functional.
In series [10] the test system is Rattus norvegicus. Kind of series: Cardiovascular activity in deoxycorticosterone acetate treated hypertensive CD rat assessed as change in heart rate at 5 mg, ip after 24 hrs relative to control. As to conditions: in vivo. Format: ADME, organism-based.
Series [11] is described as follows: Toxicity in ip dosed Swiss-Webster mouse after 24 hrs. Format: organism-based. The following applies: in vivo.
In series [12] the test system is Rattus norvegicus. Kind of series: Cardiovascular activity in deoxycorticosterone acetate treated hypertensive CD rat assessed as change in heart rate at 5 mg, ip after 1 hr relative to control. Format: ADME, organism-based. As to conditions: in vivo.
The subject of series [13] is Rattus norvegicus. Kind of series: Cardiovascular activity in deoxycorticosterone acetate treated hypertensive CD rat assessed as change in heart rate at 10 mg, ip after 4 hrs relative to control. Format: ADME, organism-based. The following applies: in vivo.
Series [14] relates to Rattus norvegicus. As to the kind of experiment: Cardiovascular activity in deoxycorticosterone acetate treated hypertensive CD rat assessed as change in heart rate at 5 mg, ip after 2 hrs relative to control. Format: ADME, organism-based. The following applies: in vivo.
Series [15] deals with Rattus norvegicus. As to the kind of experiment: Hypotensive activity in deoxycorticosterone acetate treated hypertensive CD rat assessed as change in blood pressure at 5 mg, ip after 4 hrs relative to control. Format: functional.
Series [16] deals with Rattus norvegicus. Kind of series: Hypotensive activity in deoxycorticosterone acetate treated hypertensive CD rat assessed as change in blood pressure at 20 mg, ip after 1 hr relative to control. Format: functional.
In series [17] the test system is Rattus norvegicus. Kind of series: Cardiovascular activity in deoxycorticosterone acetate treated hypertensive CD rat assessed as change in heart rate at 20 mg, ip after 24 hrs relative to control. As to conditions: in vivo. Format: ADME, organism-based.
The test system of series [18] is Rattus norvegicus. Kind of series: Cardiovascular activity in deoxycorticosterone acetate treated hypertensive CD rat assessed as change in heart rate at 20 mg, ip after 1 hr relative to control. Format: ADME, organism-based. The following applies: in vivo.
Series [19] deals with Rattus norvegicus. As to the kind of experiment: Cardiovascular activity in deoxycorticosterone acetate treated hypertensive CD rat assessed as change in heart rate at 20 mg, ip after 4 hrs relative to control. Format: ADME, organism-based. The following applies: in vivo.
In series [20] the test system is Rattus norvegicus. Kind of series: Cardiovascular activity in deoxycorticosterone acetate treated hypertensive CD rat assessed as change in heart rate at 10 mg, ip after 1 hr relative to control. Format: ADME, organism-based. As to conditions: in vivo.
Series [21] deals with Rattus norvegicus. Kind of series: Hypotensive activity in deoxycorticosterone acetate treated hypertensive CD rat assessed as change in blood pressure at 10 mg, ip after 1 hr relative to control. Format: functional.
Series [22] relates to Rattus norvegicus. As to the kind of experiment: Hypotensive activity in deoxycorticosterone acetate treated hypertensive CD rat assessed as change in blood pressure at 20 mg, ip after 4 hrs relative to control. Format: functional.
In series [23] the test system is Rattus norvegicus. Kind of series: Hypotensive activity in deoxycorticosterone acetate treated hypertensive CD rat assessed as change in blood pressure at 20 mg, ip after 2 hrs relative to control. Format: functional.
In series [24] the test system is Rattus norvegicus. Kind of series: Hypotensive activity in deoxycorticosterone acetate treated hypertensive CD rat assessed as change in blood pressure at 20 mg, ip after 24 hrs relative to control. Format: functional.
The subject of series [25] is Rattus norvegicus. As to the kind of experiment: Cardiovascular activity in deoxycorticosterone acetate treated hypertensive CD rat assessed as change in heart rate at 20 mg, ip after 2 hrs relative to control. Format: ADME, organism-based. The following applies: in vivo.
In series [26] the test system is Rattus norvegicus. As to the kind of experiment: Cardiovascular activity in deoxycorticosterone acetate treated hypertensive CD rat assessed as change in heart rate at 25 mg, ip after 2 hrs relative to control. The following applies: in vivo. Format: ADME, organism-based.
Series [27] relates to Rattus norvegicus. As to the kind of experiment: Cardiovascular activity in deoxycorticosterone acetate treated hypertensive CD rat assessed as change in heart rate at 25 mg, ip after 4 hrs relative to control. Format: ADME, organism-based. As to conditions: in vivo.
Series [28] relates to Rattus norvegicus. As to the kind of experiment: Hypotensive activity in deoxycorticosterone acetate treated hypertensive CD rat assessed as change in blood pressure at 25 mg, ip after 1 hr relative to control. Format: functional.
The subject of series [29] is Rattus norvegicus. As to the kind of experiment: Hypotensive activity in deoxycorticosterone acetate treated hypertensive CD rat assessed as change in blood pressure at 25 mg, ip after 2 hrs relative to control. Format: functional.
Series [30] relates to Rattus norvegicus. As to the kind of experiment: Cardiovascular activity in deoxycorticosterone acetate treated hypertensive CD rat assessed as change in heart rate at 25 mg, ip after 1 hr relative to control. Format: ADME, organism-based. As to conditions: in vivo.
The test system of series [31] is Rattus norvegicus. As to the kind of experiment: Hypotensive activity in deoxycorticosterone acetate treated hypertensive CD rat assessed as change in blood pressure at 25 mg, ip after 24 hrs relative to control. Format: functional.
Series [32] concerns Rattus norvegicus. As to the kind of experiment: Hypotensive activity in deoxycorticosterone acetate treated hypertensive CD rat assessed as change in blood pressure at 25 mg, ip after 4 hrs relative to control. Format: functional.
Series [33] relates to Rattus norvegicus. Kind of series: Cardiovascular activity in deoxycorticosterone acetate treated hypertensive CD rat assessed as change in heart rate at 25 mg, ip after 24 hrs relative to control. Format: ADME, organism-based. The following applies: in vivo.
For series [34], the system named is Rattus norvegicus. As to the kind of experiment: Cardiovascular activity in deoxycorticosterone acetate treated hypertensive CD rat assessed as change in heart rate at 4 mg, ip after 2 hrs relative to control. Format: ADME, organism-based. The following applies: in vivo.
Series [35] has as its system Rattus norvegicus. Kind of series: Cardiovascular activity in deoxycorticosterone acetate treated hypertensive CD rat assessed as change in heart rate at 4 mg, ip after 4 hrs relative to control. Format: ADME, organism-based. As to conditions: in vivo.
Series [36] concerns Rattus norvegicus. Kind of series: Cardiovascular activity in deoxycorticosterone acetate treated hypertensive CD rat assessed as change in heart rate at 4 mg, ip after 24 hrs relative to control. Format: ADME, organism-based. The following applies: in vivo.
Series [37] relates to Rattus norvegicus. As to the kind of experiment: Hypotensive activity in deoxycorticosterone acetate treated hypertensive CD rat assessed as change in blood pressure at 4 mg, ip after 4 hrs relative to control. Format: functional.
The subject of series [38] is Rattus norvegicus. As to the kind of experiment: Hypotensive activity in deoxycorticosterone acetate treated hypertensive CD rat assessed as change in blood pressure at 4 mg, ip after 24 hrs relative to control. Format: functional.
Series [39] concerns Rattus norvegicus. As to the kind of experiment: Hypotensive activity in deoxycorticosterone acetate treated hypertensive CD rat assessed as change in blood pressure at 4 mg, ip after 2 hrs relative to control. Format: functional.
Series [40] concerns Rattus norvegicus. As to the kind of experiment: Cardiovascular activity in deoxycorticosterone acetate treated hypertensive CD rat assessed as change in heart rate at 4 mg, ip after 1 hr relative to control. Format: ADME, organism-based. The following applies: in vivo.
Series [41] relates to Rattus norvegicus. As to the kind of experiment: Hypotensive activity in deoxycorticosterone acetate treated hypertensive CD rat assessed as change in blood pressure at 4 mg, ip after 1 hr relative to control. Format: functional.
Series [42] relates to Rattus norvegicus. As to the kind of experiment: Hypotensive activity in deoxycorticosterone acetate treated hypertensive CD rat assessed as change in blood pressure at 50 mg, ip after 24 hrs relative to control. Format: functional.
In series [43] the test system is Rattus norvegicus. As to the kind of experiment: Cardiovascular activity in deoxycorticosterone acetate treated hypertensive CD rat assessed as change in heart rate at 50 mg, ip after 24 hrs relative to control. Format: ADME, organism-based. The following applies: in vivo.

As a reminder, the LD50 is the dose at which mortality reaches 50%. Read a low LD50 as greater toxicity. For the molecule `COc1c2c(c3c(c1OC)CCNC3)CCC2`, the Activity in the series on Rattus norvegicus [1] is 4.7%; in the series with Rattus norvegicus [2], 1.8%; in the series on Rattus norvegicus [3], 1%; in the series on Rattus norvegicus [4], -8.5%; with Rattus norvegicus [5] it was -13.2%; in the series with Rattus norvegicus [6], -2.6%. The Activity in the series with Rattus norvegicus [7] is -9.5%; in the series with Rattus norvegicus [8] it was -3%; with Rattus norvegicus [9] it was 2.4%; in the series with Rattus norvegicus [10], -12.2%; in the series with Rattus norvegicus [12], -5.2%; in the series on Rattus norvegicus [13] it was 9%. In addition, the Activity in the series with Rattus norvegicus [14] was -1.4%; in the series with Rattus norvegicus [15], -6.5%. The LD50 at 24 h in series [11] came out at 25 mg/kg.

Turning to `Br.CCC(C)CN1CCc2c3c(c(OC)c(OC)c2C1)CCC3` (centres undefined), the Activity in the series with Rattus norvegicus [16] was -13.1%; with Rattus norvegicus [17], -5.5%; with Rattus norvegicus [18], 7.8%; in the series on Rattus norvegicus [19], 3.4%; in the series with Rattus norvegicus [1], -4.2%; in the series on Rattus norvegicus [3] it was -2.6%. Moreover, the Activity is -1.9% in the series with Rattus norvegicus [5]; -2.4% in the series with Rattus norvegicus [6]; 3.6% in the series on Rattus norvegicus [20]; 0.7% in the series on Rattus norvegicus [9]; -12.2% with Rattus norvegicus [21]; -7% with Rattus norvegicus [22]. Further, the Activity in the series with Rattus norvegicus [23] is -8.1%; with Rattus norvegicus [24] it was -1.6%; in the series on Rattus norvegicus [13] it was -4.3%; in the series with Rattus norvegicus [25], 7.3%. In series [11], this molecule yielded an LD50 at 24 h of 100 mg/kg.

On to `Br.CCC(C)CN1CCc2c(c3c(c(OC)c2OC)CCC3)C1` (centres undefined), for which the Activity with Rattus norvegicus [26] was 11.8%; in the series on Rattus norvegicus [27], 5%; with Rattus norvegicus [28] it was -17.2%; in the series with Rattus norvegicus [29], -12.6%; in the series with Rattus norvegicus [30], 13.7%; in the series on Rattus norvegicus [31], 1.3%. Further, the Activity is -6.7% in the series on Rattus norvegicus [32] and -0.3% with Rattus norvegicus [33]. The molecule further gave an LD50 at 24 h in series [11] of 178 mg/kg.

In the case of `Br.COc1c2c(c3c(c1OC)CCN(C)C3)CCC2`, the Activity in the series on Rattus norvegicus [34] was 11.2%; in the series on Rattus norvegicus [35], -0.4%; with Rattus norvegicus [36], 1.8%; in the series on Rattus norvegicus [37], -2.6%; with Rattus norvegicus [38] it was 19.7%; in the series on Rattus norvegicus [39], 12.2%. Also, the Activity in the series with Rattus norvegicus [40] was 13.2%; in the series with Rattus norvegicus [41] it was 13%. The LD50 at 24 h in [11] was found to be 10 mg/kg.

On to `COc1c2c(c3c(c1OC)CNCC3)CCC2`, for which the Activity is -3.9% with Rattus norvegicus [16]; 7.4% with Rattus norvegicus [17]; -16.8% with Rattus norvegicus [42]; 10.2% with Rattus norvegicus [18]; 11% with Rattus norvegicus [19]; 8.1% with Rattus norvegicus [1]. In addition, the Activity with Rattus norvegicus [3] is -7.2%; in the series with Rattus norvegicus [5], -3.4%; in the series with Rattus norvegicus [6] it was -9.1%; with Rattus norvegicus [20] it was 5.8%; with Rattus norvegicus [9], -14.2%; in the series on Rattus norvegicus [21], -3.1%. The Activity in the series on Rattus norvegicus [22] is given as -3.9%; in the series with Rattus norvegicus [23], -4%; in the series on Rattus norvegicus [24] it was -0.2%; in the series with Rattus norvegicus [13], 3.9%; with Rattus norvegicus [25], 16.9%; in the series on Rattus norvegicus [43], -3.8%. This molecule displayed an LD50 at 24 h in series [11] of 79 mg/kg.

The values above are taken from ChEMBL document CHEMBL3272130, “Synthesis and hypotensive activity of some cyclopentano-1,2,3,4-tetrahydroisoquinolines” (J Med Chem, 1977).
